These results are taken from ChEMBL document CHEMBL1130241, “Design, synthesis, and biochemical evaluation of phosphonate and phosphonamidate analogs of glutathionylspermidine as inhibitors of glutathionylspermidine synthetase/amidase from Escherichia coli” (J Med Chem, 1997).

Test [1] relates to Escherichia coli. In words: Inhibition of Glutathionylspermidine amidase at 1 mM compound concentration.
Test [2] has as its target Glutathionylspermidine synthetase/amidase (Escherichia coli) (UniProt P0AES0). The experiment in a line: Percentage of inhibition of Glutathionylspermidine synthetase at 1 mM concentration.
The target is the same in test [3]. The experiment in a line: Percentage of inhibition of Glutathionylspermidine synthetase at 7.3 mM concentration.
Test [4] concerns the target T1, Glutathionylspermidine synthase (Crithidia fasciculata, UniProt P90518).
T1 sequence (P90518 whole entry): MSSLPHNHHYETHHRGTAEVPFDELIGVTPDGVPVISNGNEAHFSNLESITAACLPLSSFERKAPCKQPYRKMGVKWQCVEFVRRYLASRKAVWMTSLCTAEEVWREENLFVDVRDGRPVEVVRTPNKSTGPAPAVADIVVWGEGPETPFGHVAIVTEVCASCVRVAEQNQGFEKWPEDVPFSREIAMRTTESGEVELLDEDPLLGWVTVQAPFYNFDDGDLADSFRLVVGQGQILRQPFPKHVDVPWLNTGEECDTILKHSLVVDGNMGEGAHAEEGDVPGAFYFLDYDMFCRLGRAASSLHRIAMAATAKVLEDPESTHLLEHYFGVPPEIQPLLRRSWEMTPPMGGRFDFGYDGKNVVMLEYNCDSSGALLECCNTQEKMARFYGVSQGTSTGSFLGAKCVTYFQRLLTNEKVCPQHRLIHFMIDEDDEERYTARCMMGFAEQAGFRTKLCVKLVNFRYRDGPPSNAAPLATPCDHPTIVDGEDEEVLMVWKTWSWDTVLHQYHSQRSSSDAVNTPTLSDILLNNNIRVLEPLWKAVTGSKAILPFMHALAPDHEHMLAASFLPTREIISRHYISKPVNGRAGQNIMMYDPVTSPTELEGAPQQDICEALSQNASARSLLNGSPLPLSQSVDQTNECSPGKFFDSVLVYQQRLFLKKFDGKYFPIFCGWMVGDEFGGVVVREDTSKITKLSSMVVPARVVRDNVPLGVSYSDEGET
In words: Inhibition of Glutathionylspermidine synthetase. Values from different publications. Also noted: species or system Escherichia coli.

In test [5] the test system is Escherichia coli. The experiment in a line: Inhibition of glutathionylspermidine amidase at 1 mM; not detectable.
The target in test [6] is Glutathionylspermidine synthetase/amidase (Escherichia coli) (UniProt P0AES0). The experiment in a line: Inhibition of Glutathionylspermidine synthetase.
Sequence of Glutathionylspermidine synthetase/amidase (Escherichia coli) (P0AES0 whole entry, looked up): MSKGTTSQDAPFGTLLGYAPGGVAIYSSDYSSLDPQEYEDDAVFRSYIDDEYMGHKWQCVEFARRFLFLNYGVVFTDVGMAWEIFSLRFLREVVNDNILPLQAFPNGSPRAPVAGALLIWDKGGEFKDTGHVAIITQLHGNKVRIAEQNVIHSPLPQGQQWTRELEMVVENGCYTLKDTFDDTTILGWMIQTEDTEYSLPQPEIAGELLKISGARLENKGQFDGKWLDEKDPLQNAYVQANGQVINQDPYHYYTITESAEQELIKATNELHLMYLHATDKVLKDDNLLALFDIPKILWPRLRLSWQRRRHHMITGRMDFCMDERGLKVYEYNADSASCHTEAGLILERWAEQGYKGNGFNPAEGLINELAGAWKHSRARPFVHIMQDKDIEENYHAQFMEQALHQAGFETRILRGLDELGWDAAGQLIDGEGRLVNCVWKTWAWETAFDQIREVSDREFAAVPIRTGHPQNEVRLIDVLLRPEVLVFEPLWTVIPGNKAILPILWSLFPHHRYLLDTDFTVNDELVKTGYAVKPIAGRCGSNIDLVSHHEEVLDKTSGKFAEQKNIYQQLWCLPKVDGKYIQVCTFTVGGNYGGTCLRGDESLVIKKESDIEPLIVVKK

As to `CCCCNP(=O)(CNC(=O)[C@H](C)NC(=O)CC[C@H](N)C(=O)O)OC` (some centres not stated), the values for the inhibition in test [1], in test [2] and in test [3] were 1.8%, 5.7% and 31.3%, respectively.

In test [1], `COP(=O)(CNC(=O)[C@H](C)NC(=O)CC[C@H](N)C(=O)O)NCCCNCCCCN` (some centres not stated) registered an inhibition of 3.4%. In test [4], the Ki was 24 µM.

In the case of `C[C@H](NC(=O)CC[C@H](N)C(=O)O)C(=O)NCP(=O)(O)OCCCNCCCCN`, the inhibition result in test [5] was “not detectable”. For the same compound, the affinity in test [6] corresponds to a Ki of 6 µM.

Broadly, the inhibition is how much of the control response was suppressed. The term Ki denotes the equilibrium dissociation constant of an inhibitor or competing ligand from its target. Low values mean a stronger hold on the target, high ones a looser hold on the target.
